Test results as given in patent publication US6194387A, “6-O-aklyl erythromycin B oxime” (Abbott Laboratories, priority 1999, dated 2001).
Read-outs that look alike come from different tables or passages of the source.

What was measured:
EN[…] [1] = test: in vitro antibacterial activity, agar dilution MIC; assay type: cell-based, Enterobacter aerogenes; settings: Klebsiella aerogenes, ATCC13048, read-out: SMIC
Procedure: (§1) 6-O-Methyl-9-oxime erythromycin B prepared in accordance with Examples 1 and 2 was assayed in vitro for anitbacterial activity as follows: Twelve petri dishes containing successive aqueous dilutions of the test compound mixed with 10 mL of sterilized Brain Heart Infusion (BHI) agar (Difco 0418-01-5) were prepared. Each plate was inoculated with 1:100 (or 1:10 for slow-growing strains, such as Micrococcus and Streptococcus) dilutions of up to 32 different micoorganisims, using a Steers replicatore block. The inoculated plates were incubated at 35-37° C. for 20 to 24 hours. In addition, a control plate, using BHI agar containing no test compound, was prepared and incubated at the beginning and end of each test.
(§2) An additional plate containing a compound having known susceptibility patterns for the organisms being tested and belonging to the same antibiotic class as the test compound was also prepared and incubated as further control, as well as to provide test-to-test comparability. Erythromycin A was used for this purpose.
(§3) After incubation, each disk was read. The minimum inhibitory concentration (MIC) was defined as the lowest concentration of drug yielding no growth, a slight haze, or sparsely isolated colonies on the inoculum spot as compared to the growth control.

[2] = test system: ACINETOBACTER CALCOACETICUS; test: in vitro antibacterial activity, agar dilution MIC; assay type: cell-based; settings: read-out: SMIC
Procedure: as §1, §2, §3

[3] = test system: STAPHYLOCOCCUS PNEUMONIAE; test: in vitro antibacterial activity, agar dilution MIC; assay type: cell-based
Procedure: as §1, §2, §3

HAEMOPHILUS INFLUENZAE = test: in vitro antibacterial activity, agar dilution MIC; assay type: cell-based
Procedure: as §1, §2, §3

STAPHYLOCOCCUS BOVIS = test: in vitro antibacterial activity, agar dilution MIC; assay type: cell-based; settings: read-out: SMIC
Procedure: as §1, §2, §3

M[…] [4] = test: in vitro antibacterial activity, agar dilution MIC; assay type: cell-based; settings: Micrococcus luteus, ATCC4698, read-out: SMIC
Procedure: as §1, §2, §3

[5] = test system: STAPHYLOCOCCUS EPIDERMIDIS; test: in vitro antibacterial activity, agar dilution MIC; assay type: cell-based; settings: read-out: SMIC
Procedure: as §1, §2, §3

MYCOBACTERIIUM SMEGMATIS = test: in vitro antibacterial activity, agar dilution MIC; assay type: cell-based; settings: read-out: SMIC
Procedure: as §1, §2, §3

STAPHYLOCOCCUS AUREUS = test: in vitro antibacterial activity, agar dilution MIC; assay type: cell-based
Procedure: as §1, §2, §3

EN[…] [6] = test: in vitro antibacterial activity, agar dilution MIC; assay type: cell-based; settings: Enterococcus faecium, ATCC8043, read-out: SMIC
Procedure: as §1, §2, §3

PROVIDENCIA STUART II = test: in vitro antibacterial activity, agar dilution MIC; assay type: cell-based; settings: read-out: SMIC
Procedure: as §1, §2, §3

PSEUDOMONAS CEPACIA = test: in vitro antibacterial activity, agar dilution MIC; assay type: cell-based; settings: Burkholderia cepacia; Table 2; 2961; read-out: SMIC
Procedure: as §1, §2, §3

STAPHYLOCOCCUS PYOGENES = test: in vitro antibacterial activity, agar dilution MIC; assay type: cell-based
Procedure: as §1, §2, §3

KLEBSIELLA PNEUMONIAE = test: in vitro antibacterial activity, agar dilution MIC; assay type: cell-based; settings: ATCC8045, read-out: SMIC
Procedure: as §1, §2, §3

PSEUDOMONAS AERUGINOSA = test: in vitro antibacterial activity, agar dilution MIC; assay type: cell-based
Procedure: as §1, §2, §3

NOCARDIA ASTEROIDES = test: in vitro antibacterial activity, agar dilution MIC; assay type: cell-based; settings: ATCC9970, Table 2, ATCC 9970, read-out: SMIC
Procedure: as §1, §2, §3

CANDIDA ALBICANS = test: in vitro antimicrobial activity, agar dilution MIC; assay type: cell-based; settings: read-out: SMIC
Procedure: as §1, §2, §3

STAP[…] = test: in vitro antibacterial activity, agar dilution MIC; assay type: cell-based, Staphylococcus agalactiae; settings: Staphylococcus, read-out: SMIC
Procedure: as §1, §2, §3

M[…] [7] = test: in vitro antibacterial activity, agar dilution MIC; assay type: cell-based, Micrococcus pyogenes; settings: Staphylococcus aureus, ATCC9341, read-out: SMIC
Procedure: as §1, §2, §3

Measured: MIC

CC[C@H]1OC(=O)[C@H](C)[C@@H](O[C@H]2C[C@@](C)(OC)[C@@H](O)[C@H](C)O2)[C@H](C)[C@@H](O[C@@H]2O[C@H](C)C[C@H](N(C)C)[C@H]2O)[C@](C)(O)C[C@@H](C)C(=O)[C@H](C)[C@@H](O)[C@]1(C)O [Erythromycin A, reference compound]
0.78 µg/mL: PSEUDOMONAS AERUGINOSA; read-out: SMIC, Table 2, K799/61
1 µg/mL: HAEMOPHILUS INFLUENZAE; ATCC43095, read-out: SIMC, Table 3, ATCC 43095
6.2 µg/mL: STAPHYLOCOCCUS PYOGENES; read-out: SMIC, Table 2, PIU 2548
12.5 µg/mL: [2] | MYCOBACTERIIUM SMEGMATIS | STAPHYLOCOCCUS AUREUS; read-out: SMIC, Table 2, A5177
8 µg/mL: [3]; read-out: SIMC, Table 3, 5649 | HAEMOPHILUS INFLUENZAE; ATCC10211, read-out: SIMC, Table 3, ATCC 10211 | HAEMOPHILUS INFLUENZAE; ATCC19418, read-out: SIMC, Table 3, ATCC 19418 | HAEMOPHILUS INFLUENZAE; read-out: SIMC, Table 3, CMX 503B | HAEMOPHILUS INFLUENZAE; read-out: SIMC, Table 3, CMX 504 | HAEMOPHILUS INFLUENZAE; read-out: SIMC, Table 3, CMX 747C | HAEMOPHILUS INFLUENZAE; read-out: SIMC, Table 3, CMX 751
0.39 µg/mL: M[…] [4] | STAPHYLOCOCCUS AUREUS; ATCC6538P, read-out: SMIC, Table 2, ATCC 6538P | STAPHYLOCOCCUS AUREUS; read-out: SMIC, Table 2, CMX 553 | STAPHYLOCOCCUS AUREUS; read-out: SMIC, Table 2, CMX 642A | STAPHYLOCOCCUS AUREUS; read-out: SMIC, Table 2, NCTC10649M
4 µg/mL: HAEMOPHILUS INFLUENZAE; read-out: SIMC, Table 3, CMX 519A | HAEMOPHILUS INFLUENZAE; read-out: SIMC, Table 3, CMX 566A | HAEMOPHILUS INFLUENZAE; read-out: SIMC, Table 3, CMX 588A | HAEMOPHILUS INFLUENZAE; read-out: SIMC, Table 3, CMX 632A | HAEMOPHILUS INFLUENZAE; read-out: SIMC, Table 3, SOL AMP R | HAEMOPHILUS INFLUENZAE; read-out: SIMC, Table 3, SPK AMP R
100 µg/mL: PSEUDOMONAS AERUGINOSA; read-out: SMIC, Table 2, BMH10
0.05 µg/mL: EN[…] [6]
0.01 µg/mL: STAPHYLOCOCCUS BOVIS | STAPHYLOCOCCUS PYOGENES; read-out: SMIC, Table 2, EES61 | STAP[…] | M[…] [7]
0.005 µg/mL: NOCARDIA ASTEROIDES
128 µg/mL: [3]; read-out: SIMC, Table 3, 5728 | [3]; read-out: SIMC, Table 3, 5737 | [3]; read-out: SIMC, Table 3, 5979 | STAPHYLOCOCCUS PYOGENES; read-out: SIMC, Table 3, 930
0.03 µg/mL: [3]; read-out: SIMC, Table 3, GYR 1171 | STAPHYLOCOCCUS PYOGENES; read-out: SIMC, Table 3, EES61
16 µg/mL: [3]; read-out: SIMC, Table 3, 5654 | STAPHYLOCOCCUS PYOGENES; read-out: SIMC, Table 3, PIU 2548
> 100 µg/mL: EN[…] [1] | STAPHYLOCOCCUS AUREUS; read-out: SMIC, Table 2, 1775 | STAPHYLOCOCCUS AUREUS; read-out: SMIC, Table 2, A-5278 | PROVIDENCIA STUART II | PSEUDOMONAS CEPACIA | STAPHYLOCOCCUS PYOGENES; read-out: SMIC, Table 2, 930 | KLEBSIELLA PNEUMONIAE | PSEUDOMONAS AERUGINOSA; read-out: SMIC, Table 2, 5007 | PSEUDOMONAS AERUGINOSA; read-out: SMIC, Table 2, DPHD-2862 | PSEUDOMONAS AERUGINOSA; read-out: SMIC, Table 2, DPHD-5263 | PSEUDOMONAS AERUGINOSA; read-out: SMIC, Table 2, K799/wt | CANDIDA ALBICANS
0.2 µg/mL: [5]
0.25 µg/mL: HAEMOPHILUS INFLUENZAE; read-out: SIMC, Table 3, GYR 1177
2 µg/mL: HAEMOPHILUS INFLUENZAE; read-out: SIMC, Table 3, GYR 1435
